Measured values as given in PubChem BioAssay AID1963421 (Molecular Pharmacology Branch, DTP, NCI, 2024).

Tested on: 519858-162-T-J1-PDC complex spheroid growth, % test/control
Experiment: Anticancer human tumor 519858-162-T-J1-PDC patient-derived colon adenocarcinoma cell line growth inhibition [Asc]
Conditions: for IC50: curve of first compound; for viability, T/C: stronger effect = lower value
Summary of the method: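 Complex solid-tumor spheroids incorporating human endothelial and mesenchymal stem cells received single agents or combinations over half-log dilution ranges anchored to clinical Cmax.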
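Note: seven day drug exposure begun three days after spheroid seeding.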
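Throughout, for viability, T/C: 100% = DMSO vehicle wells and lower values mean less viable spheroid.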

NC(=O)C(=Cn1cnc(-c2cc(C(F)(F)F)cc(C(F)(F)F)c2)n1)c1cncnc1 + Cc1c(S(C)(=O)=O)c(-c2cc(F)cc(N3CCN(c4ccc(NS(=O)(=O)c5ccc(NC(CCN6CCC(C(=O)OCCCP(=O)(O)O)CC6)CSc6ccccc6)c(S(=O)(=O)C(F)(F)F)c5)cc4)CC3)c2)c(-c2ccc(Cl)cc2)n1C(C)C
IC50 (second compound 0.0316 µM): > 300 nM
IC50 (second compound 0.1 µM): > 300 nM
IC50 (second compound 0.316 µM): > 300 nM
IC50 (second compound 1 µM): > 300 nM
IC50 (second compound 3.16 µM): > 300 nM
IC50 (second compound 10 µM): > 300 nM
viability, T/C (second compound 0.0316 µM, first compound 0.000949 µM): 113%
viability, T/C (second compound 0.0316 µM, first compound 0.003 µM): 101%
viability, T/C (second compound 0.0316 µM, first compound 0.00949 µM): 87.4%
viability, T/C (second compound 0.0316 µM, first compound 0.03 µM): 66%
viability, T/C (second compound 0.0316 µM, first compound 0.0949 µM): 97.8%
viability, T/C (second compound 0.0316 µM, first compound 0.3 µM): 88.3%
viability, T/C (second compound 0.1 µM, first compound 0.000949 µM): 94.2%
viability, T/C (second compound 0.1 µM, first compound 0.003 µM): 89.1%
viability, T/C (second compound 0.1 µM, first compound 0.00949 µM): 93.7%
viability, T/C (second compound 0.1 µM, first compound 0.03 µM): 78.3%
viability, T/C (second compound 0.1 µM, first compound 0.0949 µM): 59.4%
viability, T/C (second compound 0.1 µM, first compound 0.3 µM): 98.2%
viability, T/C (second compound 0.316 µM, first compound 0.000949 µM): 97.4%
viability, T/C (second compound 0.316 µM, first compound 0.003 µM): 86%
viability, T/C (second compound 0.316 µM, first compound 0.00949 µM): 90.9%
viability, T/C (second compound 0.316 µM, first compound 0.03 µM): 60.7%
viability, T/C (second compound 0.316 µM, first compound 0.0949 µM): 82.7%
viability, T/C (second compound 0.316 µM, first compound 0.3 µM): 74.9%
viability, T/C (second compound 1 µM, first compound 0.000949 µM): 86.6%
viability, T/C (second compound 1 µM, first compound 0.003 µM): 122%
viability, T/C (second compound 1 µM, first compound 0.00949 µM): 65%
viability, T/C (second compound 1 µM, first compound 0.03 µM): 83.5%
viability, T/C (second compound 1 µM, first compound 0.0949 µM): 71.6%
viability, T/C (second compound 1 µM, first compound 0.3 µM): 71.5%
viability, T/C (second compound 3.16 µM, first compound 0.000949 µM): 79.8%
viability, T/C (second compound 3.16 µM, first compound 0.003 µM): 79.2%
viability, T/C (second compound 3.16 µM, first compound 0.00949 µM): 78.8%
viability, T/C (second compound 3.16 µM, first compound 0.03 µM): 50.3%
viability, T/C (second compound 3.16 µM, first compound 0.0949 µM): 54.6%
viability, T/C (second compound 3.16 µM, first compound 0.3 µM): 79.8%
viability, T/C (second compound 10 µM, first compound 0.000949 µM): 58.9%
viability, T/C (second compound 10 µM, first compound 0.003 µM): 59.7%
viability, T/C (second compound 10 µM, first compound 0.00949 µM): 71.2%
viability, T/C (second compound 10 µM, first compound 0.03 µM): 76.3%
viability, T/C (second compound 10 µM, first compound 0.0949 µM): 72.4%
viability, T/C (second compound 10 µM, first compound 0.3 µM): 60.1%
